Measured values as given in article PMC9788418, “Design, Synthesis and Biological Evaluation of Syn and Anti-like Double Warhead Quinolinones Bearing Dihydroxy Naphthalene Moiety as Epidermal Growth Factor Receptor Inhibitors with Potential Apoptotic Antiproliferative Action” (Molecules, 2022).
Several values for one entry are separate records, joined by “and”; a condition that tells them apart may be missing. Equal entries are not always repeated.

Tests used:
[1] = system: Bcl-2; test: Bcl-2 inhibition assay; type: cell-based, human; details: for Bcl-2 Conc: A-549; for Bcl-2 Fold Reduction: A-549, vs control
Protocol: 4.2.5. Bcl-2inhibition assay
Mix all reagents thoroughly without foaming before use. Wash the microwells twice with approximately 300 μL Wash Buffer per well with thorough aspiration of microwell contents between washes. Take caution not to scratch the surface of the microwells. After the last wash, empty the wells and tap microwell strips on absorbent pad or paper towel to remove excess Wash Buffer. Use the microwell strips immediately after washing or place upside down on a wet absorbent paper for not […]
longer than 15 minutes. […] Add 100 μL of Sample Diluent in duplicate to all standard wells and to the blank wells. Prepare standard (1:2 dilution) in duplicate ranging from 32 ng/mL to 0.5 ng/mL. Add 100 μL of Sample Diluent, in duplicate, to the blank wells. Add 80 μL of Sample Diluent, in duplicate, to the sample wells. Add 20 μL of each Sample, in duplicate, to the designated wells. Add 50 μL of diluted biotin-conjugate to all wells, including the blank wells. Cover […]
Remove plate cover and empty the wells. […]
(§1) plate cover and incubate at room temperature, on a microplate shaker at 100 rpm if available, for 1 hour. Remove plate cover and empty the wells. Wash microwell strips 3 times as described in step 2.
(§2) Proceed to the next step. Pipette 100 μl of mixed TMB Substrate Solution to all wells, including the […]
available on a rotator set at 100 rpm. Avoid direct exposure to intense light. The point, at which the substrate reaction is stopped, is often determined by the ELISA reader. Many ELISA readers record absorbance only up to 2.0 O.D. Therefore, the color development within individual microwells must be watched by the person running the assay and the substrate reaction stopped before positive wells are no longer properly detectable. Stop the enzyme reaction by quickly pipetting 100 μL of Stop Solution into each well, including the blank wells. It is important that the Stop Solution is spread quickly and uniformly throughout the microwells to completely inactivate the enzyme. Results must be read immediately after the Stop Solution is added or within one hour if the microwell strips are stored at 2 - 8°C in the dark. Read absorbance of each microwell on a spectrophotometer using 450 nm as the primary wave length. […]

[2] = system: caspase-8; test: Caspase-8 activation assay; type: cell-based, human; details: for Caspase-8 Fold Change: vs control cells
[3] = Cell viability assay (MTT) on normal cell line; type: cell-based, human; details: human, MCF-10A mammary gland epithelial cells, four days
Protocol: A cell viability test was performed using MCF-10A (human mammary gland epithelial) cell line to investigate the effect of 4a–e and 7a–e on normal cell lines. In this investigation, a concentration of 50 µM of the studied compound is employed for four days, after which cell viability is assessed.
4.2. Biological evaluation
4.2.1. Cytotoxic activity using MTT Assay and evaluation of IC50
MTT assay was carried out to study the effect of compounds on mammary epithelial cells (MCF-10A). The medium in which cells were propagated contained Dulbecco's modified Eagle's medium (DMEM)/ Ham's F-12 medium (1:1) supplemented with epidermal growth factor (20 ng/mL), hydrocortisone (500 ng/mL), insulin (10 μg/mL), 2 mM glutamine and 10% foetal calf serum. After every 2-3 days, the cells were passaged using trypsin ethylenediamine tetra acetic acid (EDTA). The cells were seeded at a density of 10^4 cells mL-1 in flat-bottomed culture plates containing 96 wells each. After 24 h, medium was removed from the plates and the compounds in (in 0.1% DMSO) were added (in 200 μL medium to yield a final concentration of 0.1% v/v) to the wells of plates. A single compound was designated with four wells followed by incubation of plates for 96h at 37°C. After incubation, medium was removed completely from the plates followed by addition of MTT (0.4 mg/mL in medium) to each well and subsequent incubation of plates for 3h. MTT (along with the medium) was removed and DMSO (150μL) was added to each well of the culture plates, followed by vortexing and subsequent measurement of absorbance (at 540 nm) using microplate reader. […]

[4] = system: Cytochrome C; test: Cytochrome C assay; type: cell-based, human; details: for Cytochrome C Conc: A-549; for Cytochrome C Fold Change: A-549, vs control
Protocol: The concentration of Cytochrome c in a cell is crucial for activating caspases and starting the intrinsic apoptosis process. […]
as §1, §2
available on a rotator set at 100 rpm. Avoid direct exposure to intense light. The point, at which the substrate reaction is stopped, is often determined by the ELISA reader. Many ELISA readers record absorbance only up to 2.0 O.D. Therefore, the color development within individual microwells must be watched by the person running the assay and the substrate reaction stopped before positive wells are no longer properly detectable. Stop the enzyme reaction by quickly pipetting 100 μL of Stop Solution into each well, including the blank wells. It is important that the Stop Solution is spread quickly and uniformly throughout the microwells to completely inactivate the enzyme. Results must be read immediately after the Stop Solution is added or within one hour if the microwell strips are stored at 2 - 8°C in the dark. Read absorbance of each microwell on a spectrophotometer using 450 nm as the primary wave length.
4.2.6. Cytochrome C assay […]
cytochrome C, and lysed with Cell Extraction Buffer. This lysate was diluted in Standard Diluent Buffer over the range of the assay and measured for cytochrome C content. (Cells are Plated in cells/well in a volume of 100µl complete growth medium + 100 µl of the tested compound + 50 µl of 1X biotin conjugated antibody+ 100 µl of 1X streptavidin-HRP+ 100 µL TMB substrate soln of per well in a 96-well plate for 24 hours before assay).
4.3. Statistical analysis
Computerized Prism 5 program was used to statistically analyzed data using one-way ANOVA test followed by Tukey’s as post ANOVA for multiple comparison at P ≤.05. Data were presented as […]

[5] = target: EGFR (Homo sapiens, UniProt P00533); test: EGFR inhibitory assay (EGFR-TK, DELFIA/time-resolved fluorometry)
Protocol: EGFR-TK assay was performed to evaluate the inhibitory potency of novel compounds against
EGFR. Baculoviral expression vectors including pBlueBacHis2B and pFASTBacHTc were used
5ʹ upstream to the EGFR sequence comprised a sequence that encoded (His)6. Sf-9 cells were infected for 72h for protein expression. The pellets of Sf-9 cells were solubilized in a buffer containing sodium vanadate (100 µM), aprotinin (10 µg/mL), triton (1%), HEPES buffer (50mM), ammonium molybdate (10 µM), benzamidine HCl (16 µg/mL), NaCl (10 mM), leupeptin (10 µg/mL) and pepstatin (10 µg/mL) at 0°C for 20 min at pH 7.4, followed by centrifugation for 20 min.
To eliminate the non-specifically bound material, a Ni-NTA super flow packed column was used to pass through and wash the crude extract supernatant first with 10 mM and then with 100 mM imidazole. Histidine-linked proteins were first eluted with 250 and then with 500 mM imidazole after (1 picture or pasted object on this page, not shown here)
dialysis against NaCl (50 mM), HEPES (20 mM), glycerol (10%) and 1 µg/mL each of aprotinin, leupeptin and pepstatin for 120 min. The purification was performed either at 4 °C or on ice. To
record autophosphorylation level, EGFR kinase assay was carried out based on DELFIA/Time-
Resolved Fluorometry. The compounds were first dissolved in DMSO absolute, after dilution to
Each compound (10 µL) was incubated
with recombinant enzyme (10 µL, 5 ng for EGFR, 1:80 dilution in 100 mM HEPES) for 10 min at
25 °C, after the addition of 5X buffer (10 µL, containing 2 mM MnCl2, 100 µM Na3VO4, 20 mM HEPES and 1 mM DTT) and ATP-MgCl2 (20 µL, containing 0.1 mM ATP and 50 mM MgCl2) and
incubation for 1h. The negative and positive controls were included in each plate by the incubation
of enzyme either with or without ATP-MgCl2. The liquid was removed after incubation and the plates
were washed thrice using wash buffer. Europium-tagged antiphosphotyrosine antibody (75 µL, 400
ng) was added to each well followed by incubation of 1h and then washing of the plates using buffer.
The enhancement solution was added to each well and the signal was recorded at excitation and
The autophosphorylation percentage inhibition by compounds was calculated using the following equation:

[6] = system: caspase-9; test: Caspase-9 level assay; type: cell-based, human; details: for Caspase-9 Fold Change: vs control cells
Protocol: The impact of compounds 4a and 4b on caspase-8 and caspase-9 was also assessed to clarify how compounds 4a and 4b induce apoptosis by activating the intrinsic or extrinsic route.

Sequence of EGFR (P00533 669-1210): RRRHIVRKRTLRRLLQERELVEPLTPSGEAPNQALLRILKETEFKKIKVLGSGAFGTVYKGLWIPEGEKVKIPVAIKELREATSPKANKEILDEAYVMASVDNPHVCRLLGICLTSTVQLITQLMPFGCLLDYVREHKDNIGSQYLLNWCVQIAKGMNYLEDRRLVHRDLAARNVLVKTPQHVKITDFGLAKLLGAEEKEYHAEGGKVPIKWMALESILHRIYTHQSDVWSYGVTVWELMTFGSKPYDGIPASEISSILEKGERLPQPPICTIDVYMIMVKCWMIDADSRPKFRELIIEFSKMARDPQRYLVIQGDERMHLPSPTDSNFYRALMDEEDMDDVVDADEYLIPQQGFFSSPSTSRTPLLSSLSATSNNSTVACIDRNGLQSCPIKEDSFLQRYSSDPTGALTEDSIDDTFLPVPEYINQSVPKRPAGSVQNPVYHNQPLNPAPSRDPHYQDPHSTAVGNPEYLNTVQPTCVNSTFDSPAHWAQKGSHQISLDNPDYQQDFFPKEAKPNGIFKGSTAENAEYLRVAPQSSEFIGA

Compound | Bcl-2 Conc [1] | Bcl-2 Fold Reduction [1] | Caspase-8 Conc [2] | Caspase-8 Fold Change [2] | viability at 96 h, 50 µM [3] | Cytochrome C Conc [4] | Cytochrome C Fold Change [4] | IC50 [5] | fold less effective than erlotinib (EGFR IC50) ([5]; relative to erlotinib) | Caspase-9 Conc [6] | Caspase-9 Fold Change [6]
Cc1ccc2[nH]c(=O)cc(-n3cc(COc4cccc5cccc(OCc6cn(-c7cc(=O)[nH]c8ccc(C)cc78)nn6)c45)nn3)c2c1 [Compound 4b, 4,4′-(((naphthalene-1,8-diylbis(oxy))bis(methylene))bis(1H-1,2,3-triazole-4,1-diyl))-bis(6-methylquinolin-2(1H)-one)] | 1.17 ng/mL | 4 | 0.80 ng/mL | 4 | 89% | 0.70 ng/mL | 14 | 93 ± 9 nM | roughly 1.3 fold | 16.60 ng/mL | 18 and 17.50
O=c1cc(-n2cc(COc3cccc4cccc(OCc5cn(-c6cc(=O)[nH]c7ccccc67)nn5)c34)nn2)c2ccccc2[nH]1 [Compound 4a, 4,4′-(((naphthalene-1,8-diylbis(oxy))bis(methylene))bis(1H-1,2,3-triazole-4,1-diyl))-bis-(quinolin-2(1H)-one)] | 1.05 ng/mL | 5 | 1.20 ng/mL | 6 | 91% | 0.80 ng/mL | 16 | 64 ± 6 nM | – | 17.80 ng/mL | 19 and 18.75
